Holding throughout (format): cell-based
For test [1], the system named is A549. Lung carcinoma cell line bearing KRas^G12S oncogenic mutation. Kind of test: Antiproliferative MTS assay, A549 cells. The note with it: compounds 1-23 and 47-52 median of experiments, 24-46 estimations and/or preliminary results, read-out: IC50 values: cell proliferation inhibition, A549. How it is done:
Cell line #1: A549. Lung carcinoma cell line bearing KRas^G12S oncogenic mutation
(§1) Cell lines were cultured in DMEM or RPMI-1640 supplemented with FBS 10%. In order to assess the antiproliferative effect of compounds, cells were seeded at a density of 1.8×10^3, 6.2×10^3, 7.8×10^3, 21×10^3 and 2×10^3 cells/cm^2, respectively, in tissue culture microplates and were incubated in humidified atmosphere at 5% CO2. 24 h later, compounds dissolved in DMSO 100% were added for different final concentrations ranging between 0.1 and 50 μM for a final DMSO concentration of 0.5% and the plates were incubated for another 72 h. After incubation, proliferation was quantified using CellTiter 96® Aqueous Non-Radioactive Cell Proliferation Assay-MTS (Promega #G5421) following manufacturer instructions. Amount of 490 nm absorbance is directly proportional to the number of living cells. Absorbance was recorded with a BMG Fluostar Optima Microplate Reader and normalized to control with vehicle.

Test [2] deals with H358. non-small cell lung cancer line bearing KRas^G12C oncogenic mutation. Nature of the test: Antiproliferative MTS assay, H358 cells. The note with it: compounds 1-23, 47-52 and Reference Example 1 median of experiments, 24-46 estimations and/or preliminary results, read-out: IC50 values: cell proliferation inhibition, H358. How it is done:
Cell line #2: H358. non-small cell lung cancer line bearing KRas^G12C oncogenic mutation
as §1

For test [3], the system named is PANC-1. epithelioid carcinoma of the pancreas cell line bearing KRas^G12D oncogenic mutation. Nature of the test: Antiproliferative MTS assay, PANC-1 cells. The note with it: compounds 1-23 and 47-52 median of experiments, 24-46 estimations and/or preliminary results, read-out: IC50 values: cell proliferation inhibition, Panc-1. How it is done: Cell line #3: PANC-1. epithelioid carcinoma of the pancreas cell line bearing KRas^G12D oncogenic mutation
as §1

In test [4] the test system is RPMI. myeloma cell line bearing KRas^G12A oncogenic mutation. Nature of the test: Antiproliferative MTS assay, RPMI cells. The note with it: 72 h, compounds 1-23 and 47-52 median of experiments, 24-46 estimations and/or preliminary results, read-out: IC50 values: cell proliferation inhibition, RPMI. How it is done: Cell line #4: RPMI. myeloma cell line bearing KRas^G12A oncogenic mutation
as §1

pIC50: −log10 of the molar value. Read-outs that look alike come from different tables or passages of the source.

Turning to `CCNC(=O)N1CCc2cc(OC)c(OCCc3ccc(OC)c(N)c3)cc2C1c1ccc(F)cc1C` (stereo not drawn) [Compound 12], the pIC50 was 6.05 in test [1] (Homo sapiens, A549, 72 h); 6.70 in test [2] (Homo sapiens, NCI-H358, 72 h); 7.00 in test [3] (Homo sapiens, PANC-1, 72 h); 7.00 in test [4].

For `CCNC(=O)N1CCc2cc(OC)c(OCCc3ccc(N)c(OC)c3)cc2C1c1ccc(Cl)cc1C` (stereo not drawn) [Compound 14], the pIC50 was 5.80 in test [1] (Homo sapiens, A549, 72 h); 6.15 in test [2] (72 h); 6.30 in test [3] (72 h); 6.40 in test [4].

Regarding `COc1ccc(CCOc2cc3c(cc2OC)CCN(C(=O)NCc2cocn2)C3c2ccc(C(F)(F)F)cc2C)cc1N` (stereo not drawn) [Compound 15], the pIC50 is 6.00 in test [1] (Homo sapiens, A549, 72 h); 6.52 in test [2] (Homo sapiens, NCI-H358, 72 h); 6.52 in test [3] (Homo sapiens, PANC-1, 72 h); 7.00 in test [4].

As to `COc1ccc(C2c3cc(OCCc4ccc(OC)c(N)c4)c(OC)cc3CCN2C(=O)NCc2cocn2)c(C)c1` (stereo not drawn) [Compound 16], the pIC50 in test [1] (Homo sapiens, A549, 72 h) is 6.00; in test [2] (Homo sapiens, NCI-H358, 72 h), 6.52; in test [3] (Homo sapiens, PANC-1, 72 h), 6.70; in test [4] it was 7.00.

Take `COc1ccc(CCOc2cc3c(cc2OC)CCN(C(=O)NCc2cocn2)C3c2ccc(F)cc2C)cc1N` (stereo not drawn) [Compound 17]: the pIC50 in test [1] (Homo sapiens, A549, 72 h) is 6.00; in test [2] (Homo sapiens, NCI-H358, 72 h) it was 6.30; in test [3] (Homo sapiens, PANC-1, 72 h) it was 6.40; in test [4] it was 6.70.

Take `COc1ccc(CCOc2cc3c(cc2OC)CCN(C(=O)NCc2cocn2)C3c2ccc(Cl)cc2C)cc1N` (stereo not drawn) [Compound 18]: the pIC50 was 6.00 in test [1] (Homo sapiens, A549, 72 h); 6.52 in test [2] (Homo sapiens, NCI-H358, 72 h); 6.70 in test [3] (Homo sapiens, PANC-1, 72 h); 7.00 in test [4].

As for `COc1ccc(CCOc2cc3c(cc2OC)CCN(C(=O)NCc2ccon2)C3c2ccc(C)cc2C)cc1N` (stereo not drawn) [Compound 19], the pIC50 was 5.82 in test [1] (Homo sapiens, A549, 72 h); 6.30 in test [2] (Homo sapiens, NCI-H358, 72 h); 6.52 in test [3] (Homo sapiens, PANC-1, 72 h); 6.30 in test [4].

For `COc1ccc(CCOc2cc3c(cc2OC)CCN(C(=O)NCc2ccon2)C3c2ccc(C(F)(F)F)cc2C)cc1N` (stereo not drawn) [Compound 20], the pIC50 in test [1] (Homo sapiens, A549, 72 h) is 6.00; in test [2] (Homo sapiens, NCI-H358, 72 h) it was 6.40; in test [3] (Homo sapiens, PANC-1, 72 h), 6.40; in test [4], 6.70.

Take `COc1ccc(C2c3cc(OCCc4ccc(OC)c(N)c4)c(OC)cc3CCN2C(=O)NCc2ccon2)c(C)c1` (stereo not drawn) [Compound 21]: the pIC50 in test [1] (Homo sapiens, A549, 72 h) is 6.05; in test [2] (Homo sapiens, NCI-H358, 72 h), 6.70; in test [3] (Homo sapiens, PANC-1, 72 h), 6.70; in test [4], 7.00.

For the compound `COc1ccc(CCOc2cc3c(cc2OC)CCN(C(=O)NCc2ccon2)C3c2ccc(F)cc2C)cc1N` (stereo not drawn) [Compound 22], the pIC50 was below 5.70 in test [1] (Homo sapiens, A549, 72 h); 6.15 in test [2] (Homo sapiens, NCI-H358, 72 h); 6.22 in test [3] (Homo sapiens, PANC-1, 72 h); 6.30 in test [4].

On to `COc1ccc(CCOc2cc3c(cc2OC)CCN(C(=O)NCc2ccon2)C3c2ccc(Cl)cc2C)cc1N` (stereo not drawn) [Compound 23], for which the pIC50 was 6.15 in test [1] (Homo sapiens, A549, 72 h); 7.00 in test [2] (Homo sapiens, NCI-H358, 72 h); 7.00 in test [3] (Homo sapiens, PANC-1, 72 h); 7.00 in test [4].

For the compound `COc1ccc(CCOc2cc3c(cc2OC)CCN(C(=O)NCC(F)(F)F)C3c2ccc(C)cc2C)cc1N` (stereo not drawn) [Compound 24], the pIC50 in test [1] (Homo sapiens, A549, 72 h) is 6.00; in test [2] (Homo sapiens, NCI-H358, 72 h), 6.70; in test [3] (Homo sapiens, PANC-1, 72 h), 6.70; in test [4], 7.00.

Regarding `COc1ccc(CCOc2cc3c(cc2OC)CCN(C(=O)NCC(F)(F)F)C3c2ccc(C(F)(F)F)cc2C)cc1N` (stereo not drawn) [Compound 25], the pIC50 in test [1] (Homo sapiens, A549, 72 h) is below 5.70; in test [2] (Homo sapiens, NCI-H358, 72 h), 6.22; in test [3] (Homo sapiens, PANC-1, 72 h), 6.30; in test [4], 6.52.

Regarding `COc1ccc(C2c3cc(OCCc4ccc(OC)c(N)c4)c(OC)cc3CCN2C(=O)NCC(F)(F)F)c(C)c1` (stereo not drawn) [Compound 26], the pIC50 is 6.00 in test [1] (Homo sapiens, A549, 72 h); 6.40 in test [2] (Homo sapiens, NCI-H358, 72 h); 6.30 in test [3] (Homo sapiens, PANC-1, 72 h); 6.70 in test [4].

`COc1ccc(CCOc2cc3c(cc2OC)CCN(C(=O)NCC(F)(F)F)C3c2ccc(F)cc2C)cc1N` (stereo not drawn) [Compound 27]: the pIC50 in test [1] (Homo sapiens, A549, 72 h) is 6.05; in test [2] (Homo sapiens, NCI-H358, 72 h), 6.52; in test [3] (Homo sapiens, PANC-1, 72 h), 6.52; in test [4], 7.00.

For `COc1ccc(CCOc2cc3c(cc2OC)CCN(C(=O)NCC(F)(F)F)C3c2ccc(Cl)cc2C)cc1N` (stereo not drawn) [Compound 28], the pIC50 in test [1] (Homo sapiens, A549, 72 h) was 6.10; in test [2] (Homo sapiens, NCI-H358, 72 h), 6.52; in test [3] (Homo sapiens, PANC-1, 72 h) it was 6.70; in test [4], 7.00.

For `CCNC(=O)N1CCc2cc(OC)c(OCCc3ccc(N)c(OC)c3)cc2C1c1ccc(C(F)(F)F)cc1C` (stereo not drawn) [Compound 29], the pIC50 in test [1] (Homo sapiens, A549, 72 h) is 5.82; in test [2] (Homo sapiens, NCI-H358, 72 h), 6.30; in test [3] (Homo sapiens, PANC-1, 72 h), 6.40; in test [4], 6.70.

Turning to `CCNC(=O)N1CCc2cc(OC)c(OCCc3ccc(N)c(OC)c3)cc2C1c1ccc(OC)cc1C` (stereo not drawn) [Compound 30], the pIC50 in test [1] (Homo sapiens, A549, 72 h) was 6.00; in test [2] (Homo sapiens, NCI-H358, 72 h) it was 6.40; in test [3] (Homo sapiens, PANC-1, 72 h), 6.30; in test [4], 6.52.

Turning to `CCNC(=O)N1CCc2cc(OC)c(OCCc3ccc(N)c(OC)c3)cc2C1c1ccc(F)cc1C` (stereo not drawn) [Compound 31], the pIC50 was below 5.70 in test [1] (Homo sapiens, A549, 72 h); 6.30 in test [2] (Homo sapiens, NCI-H358, 72 h); 6.40 in test [3] (Homo sapiens, PANC-1, 72 h); 7.00 in test [4].

With `CCNC(=O)N1CCc2cc(OC)c(OCCc3ccc(N)c(OC)c3)cc2C1c1ccc(Cl)cc1C` (stereo not drawn) [Compound 32], the pIC50 in test [1] (72 h) was 6.00; in test [2] (72 h), 6.52; in test [3] (72 h), 6.70; in test [4], 7.00.

On to `COc1cc(CCOc2cc3c(cc2OC)CCN(C(=O)NCc2cocn2)C3c2ccc(C)cc2C)ccc1N` (stereo not drawn) [Compound 33], for which the pIC50 in test [1] (Homo sapiens, A549, 72 h) was below 5.70; in test [2] (Homo sapiens, NCI-H358, 72 h), 6.10; in test [3] (Homo sapiens, PANC-1, 72 h), 6.22; in test [4], 6.15.

For the compound `COc1cc(CCOc2cc3c(cc2OC)CCN(C(=O)NCc2cocn2)C3c2ccc(C(F)(F)F)cc2C)ccc1N` (stereo not drawn) [Compound 34], the pIC50 in test [1] (Homo sapiens, A549, 72 h) is 5.92; in test [2] (Homo sapiens, NCI-H358, 72 h) it was 6.30; in test [3] (Homo sapiens, PANC-1, 72 h) it was 6.40; in test [4], 7.00.

With `COc1ccc(C2c3cc(OCCc4ccc(N)c(OC)c4)c(OC)cc3CCN2C(=O)NCc2cocn2)c(C)c1` (stereo not drawn) [Compound 35], the pIC50 in test [1] (Homo sapiens, A549, 72 h) was 6.00; in test [2] (Homo sapiens, NCI-H358, 72 h) it was 6.40; in test [3] (Homo sapiens, PANC-1, 72 h), 6.40; in test [4], 6.52.

Turning to `COc1cc(CCOc2cc3c(cc2OC)CCN(C(=O)NCc2cocn2)C3c2ccc(F)cc2C)ccc1N` (stereo not drawn) [Compound 36], the pIC50 in test [1] (Homo sapiens, A549, 72 h) was 5.77; in test [2] (Homo sapiens, NCI-H358, 72 h), 6.05; in test [3] (Homo sapiens, PANC-1, 72 h), 6.15; in test [4], 6.30.

As for `COc1cc(CCOc2cc3c(cc2OC)CCN(C(=O)NCc2cocn2)C3c2ccc(Cl)cc2C)ccc1N` (stereo not drawn) [Compound 37], the pIC50 in test [1] (Homo sapiens, A549, 72 h) was 5.82; in test [2] (Homo sapiens, NCI-H358, 72 h), 6.40; in test [3] (Homo sapiens, PANC-1, 72 h), 6.40; in test [4] it was 7.00.

As to `COc1cc(CCOc2cc3c(cc2OC)CCN(C(=O)NCc2ccon2)C3c2ccc(C)cc2C)ccc1N` (stereo not drawn) [Compound 38], the pIC50 in test [1] (Homo sapiens, A549, 72 h) was 5.82; in test [2] (Homo sapiens, NCI-H358, 72 h) it was 6.30; in test [3] (Homo sapiens, PANC-1, 72 h) it was 6.40; in test [4], 6.70.

As for `CCNC(=O)N1CCc2cc(OC)c(OCCc3ccc(OC)c(N)c3)cc2C1c1ccc(C(=O)OC)cc1C` (stereo not drawn) [Reference Example 1, reference compound], in test [2] (Homo sapiens, NCI-H358, 72 h), the pIC50 is 6.52.

The record behind these values is patent US20220380357A1, “TETRAHYDROISOQUINOLINE COMPOUNDS” (ALLINKY BIOPHARMA, priority 2019, published 2022).
